Experimental data reported in publication PMC4001115 (International journal of toxicology, 2014).

Legend:
[1] = test system: bone marrow polychromatic erythrocytes (PCEs); assay: Bone marrow micronucleus analysis; assay type: in vivo, CD-1 mice; conditions: DAC 1.0 mg/kg; for Number of MPCE/1000 PCE (Mean +/− SD): single animal
[2] = Toxicokinetics: plasma DAC by LC-MS/MS after oral gavage; assay type: in vivo, CD-1 mice; conditions: for Cmax / AUC: plasma, po; for AUC: AUCfit
CD-1 mice = assay: Microscopic findings; assay type: in vivo; conditions: THU/DAC 167/0.0 mg/kg; for Cytoplasmic Alteration, MK (Minimal): bone marrow
[3] = mice, 100 mg/kg po, cited from earlier work
monkey = conditions: single intravenous injections up to 1 g/kg; cited from earlier work
beagle dog = conditions: single intravenous injections up to 1 g/kg; cited from earlier work
[4] = male, CD-1, mouse, 0.2 mg/kg, males, THU/DAC 167/0.2 mg/kg, Day 1
[5] = male, CD-1, mouse, 0.2 mg/kg, males, THU/DAC 167/0.2 mg/kg, Day 58
[6] = male, CD-1, mouse, 0.4 mg/kg, males, THU/DAC 167/0.4 mg/kg, Day 1
[7] = male, CD-1, mouse, 0.4 mg/kg, males, THU/DAC 167/0.4 mg/kg, Day 58
[8] = male, CD-1, mouse, 1 mg/kg, males, THU/DAC 0/1.0 mg/kg, Day 1
[9] = male, CD-1, mouse, 1 mg/kg, males, THU/DAC 0/1.0 mg/kg, Day 58
[10] = male, CD-1, mouse, 1 mg/kg, males, THU/DAC 167/1.0 mg/kg, Day 1
[11] = male, CD-1, mouse, 1 mg/kg, males, THU/DAC 167/1.0 mg/kg, Day 58

Question: What does the source list for `Nc1ncn([C@H]2C[C@H](O)[C@@H](CO)O2)c(=O)n1` [DAC, 5-aza-2’-deoxycytidine]?
Answer: Number of MPCE/PCE Scored ([1]; F): ^*73 / 2000; PCE/Total Erythrocytes (Mean+/−SD) ([1]; F): 0.168±0.05; PCE/Total Erythrocytes, Change from Control ([1]; F): −65%; Number of MPCE/1000 PCE (Mean +/− SD) ([1]; F): 36.5 ± ^1SD; Number of MPCE/PCE Scored ([1]; M): ^*41 / 2000; PCE/Total Erythrocytes (Mean+/−SD) ([1]; M): 0.127±0.06; PCE/Total Erythrocytes, Change from Control ([1]; M): −73%; Number of MPCE/1000 PCE (Mean +/− SD) ([1]; M): 20.5 ± ^1SD; DAC detectable in plasma through (post dose) ([2]; both, CD-1, mouse, in vivo): 180 min; DAC exposure, female mice compared to males ([2]; both, CD-1, mouse, in vivo): ~ 2 fold; Cmax ([2]; female, CD-1, mouse, 0.2 mg/kg, females, THU/DAC 167/0.2 mg/kg, Day 1): 1900 nM; Cmax ([2]; female, CD-1, mouse, 0.2 mg/kg, females, THU/DAC 167/0.2 mg/kg, Day 58): 960 nM; Cmax ([2]; female, CD-1, mouse, 0.4 mg/kg, females, THU/DAC 167/0.4 mg/kg, Day 1): 2780 nM; Cmax ([2]; female, CD-1, mouse, 0.4 mg/kg, females, THU/DAC 167/0.4 mg/kg, Day 58): 1650 nM; Cmax ([2]; female, CD-1, mouse, 1 mg/kg, females, THU/DAC 0/1.0 mg/kg, Day 1): 2050 nM; Cmax ([2]; female, CD-1, mouse, 1 mg/kg, females, THU/DAC 0/1.0 mg/kg, Day 58): 1230 nM; DAC detectable in plasma through (post dose) ([2]; male, CD-1, mouse, in vivo): 120 min; AUC [2, 4]: 1.57 µM·h; AUC [2, 5]: 1.25 µM·h; Cmax [2, 4]: 1180 nM; Cmax [2, 5]: 700 nM; AUC [2, 6]: 3.08 µM·h; AUC [2, 7]: 2.11 µM·h; Cmax [2, 6]: 2620 nM; Cmax [2, 7]: 980 nM; AUC [2, 8]: 0.864 µM·h; AUC [2, 9]: 0.976 µM·h; AUC [2, 10]: 7.65 µM·h; AUC [2, 11]: 5.87 µM·h; Cmax [2, 8]: 1750 nM; Cmax [2, 9]: 1200 nM; Cmax [2, 10]: 5810 nM; Cmax [2, 11]: 4740 nM; time of plasma DAC Cmax ([2]; oral DAC with or without THU): ≤ 1 h

Question: Which results are given for `O=C1NC(O)CCN1[C@@H]1O[C@H](CO)[C@@H](O)[C@H]1O` (stereo partly drawn) [THU, tetrahydrouridine]?
Answer: Cytoplasmic Alteration, MK (Minimal) (CD-1 mice; females, Day 59): 0/10; Cytoplasmic Alteration, MK (Minimal) (CD-1 mice; males, Day 59): 0/10; Bone Marrow Cytoplasmic Alteration, MK, Minimal (CD-1 mice; females, Day 31): 0/6; Bone Marrow Hypocellularity, Marked (CD-1 mice; females, Day 31): 0/6; Bone Marrow Hypocellularity, Moderate (CD-1 mice; females, Day 31): 0/6; Duodenum Apoptosis, Minimal-Mild (CD-1 mice; females, Day 31): 0/6; Ileum Apoptosis, Minimal-Mild (CD-1 mice; females, Day 31): 0/6; Jejunum Apoptosis, Minimal-Mild (CD-1 mice; females, Day 31): 0/6; Spleen Proliferation, MK, Red Pulp, Minimal-Mild (CD-1 mice; females, Day 31): 0/6; Thymus Depletion, Lymphoid Cortex, Marked (CD-1 mice; females, Day 31): 0/5; Thymus Depletion, Lymphoid Cortex, Mild-Moderate (CD-1 mice; females, Day 31): 0/5; Uterus Atrophy, Mild (CD-1 mice; females, Day 31): 0/6; Bone Marrow Hypocellularity, Marked (CD-1 mice; females, Day 59): 0/10; Bone Marrow Hypocellularity, Moderate (CD-1 mice; females, Day 59): 0/10; Duodenum Apoptosis, Minimal-Mild (CD-1 mice; females, Day 59): 0/10; Ileum Apoptosis, Minimal-Mild (CD-1 mice; females, Day 59): 0/10; Jejunum Apoptosis, Minimal-Mild (CD-1 mice; females, Day 59): 0/10; Spleen Proliferation, MK, Red Pulp, Minimal-Mild (CD-1 mice; females, Day 59): 0/10; Uterus Atrophy, Mild (CD-1 mice; females, Day 59): 0/10; Bone Marrow Cytoplasmic Alteration, MK, Minimal (CD-1 mice; males, Day 31): 0/6; Bone Marrow Hypocellularity, Marked (CD-1 mice; males, Day 31): 0/6; Bone Marrow Hypocellularity, Moderate (CD-1 mice; males, Day 31): 0/6; Duodenum Apoptosis, Minimal-Mild (CD-1 mice; males, Day 31): 0/6; Epididymides Hypospermia, Head, Marked (CD-1 mice; males, Day 31): 0/6; Epididymides Hypospermia, Head, Minimal-moderate (CD-1 mice; males, Day 31): 0/6; Epididymides Hypospermia, Tail, Mild-moderate (CD-1 mice; males, Day 31): 0/6; Ileum Apoptosis, Minimal-Mild (CD-1 mice; males, Day 31): 0/6; Jejunum Apoptosis, Minimal-Mild (CD-1 mice; males, Day 31): 0/6; Spleen Proliferation, MK, Red Pulp, Minimal-Mild (CD-1 mice; males, Day 31): 0/6; Testis Degeneration, Seminiferous Tubules, Marked (CD-1 mice; males, Day 31): 0/6; Testis Degeneration, Seminiferous Tubules, Minimal-mild (CD-1 mice; males, Day 31): 0/6; Testis Degeneration, Seminiferous Tubules, Moderate (CD-1 mice; males, Day 31): 0/6; Thymus Depletion, Lymphoid Cortex, Marked (CD-1 mice; males, Day 31): 0/6; Thymus Depletion, Lymphoid Cortex, Mild-Moderate (CD-1 mice; males, Day 31): 0/6; Bone Marrow Hypocellularity, Marked (CD-1 mice; males, Day 59): 0/10; Bone Marrow Hypocellularity, Moderate (CD-1 mice; males, Day 59): 0/10; Duodenum Apoptosis, Minimal-Mild (CD-1 mice; males, Day 59): 0/10; Epididymides Hypospermia, Head, Marked (CD-1 mice; males, Day 59): 0/10; Epididymides Hypospermia, Head, Moderate (CD-1 mice; males, Day 59): 0/10; Epididymides Hypospermia, Tail, Mild-moderate (CD-1 mice; males, Day 59): 0/10; Ileum Apoptosis, Minimal-Mild (CD-1 mice; males, Day 59): 0/10; Jejunum Apoptosis, Minimal-Mild (CD-1 mice; males, Day 59): 0/10; Spleen Proliferation, MK, Red Pulp, Minimal-Mild (CD-1 mice; males, Day 59): 0/10; Testis Degeneration, Seminiferous Tubules, Marked (CD-1 mice; males, Day 59): 0/10; Testis Degeneration, Seminiferous Tubules, Mild-moderate (CD-1 mice; males, Day 59): 0/10; Testis Degeneration, Seminiferous Tubules, Severe (CD-1 mice; males, Day 59): 0/10; Thymus Depletion, Lymphoid Cortex, Marked (CD-1 mice; males, Day 59): 0/10; Thymus Depletion, Lymphoid Cortex, Mild-Moderate (CD-1 mice; males, Day 59): 0/10; half life [3]: 1.42 h; oral bioavailability [3]: 20%; sustained plasma concentrations that inhibit CDA ([3]; for several hours): > 1 µg/mL; toxic effects (monkey): no notable toxic effects; toxic effects (beagle dog): no notable toxic effects
